According to paper PMC6881066, “Non-sedating benzodiazepines cause paralysis and tissue damage in the parasitic blood fluke Schistosoma mansoni” (PLoS Neglected Tropical Diseases, 2019):
Entries after “also recorded” stand apart in the source; their conditions may differ. Read-outs that look alike come from different tables or passages of the source.

Legend:
adult male S. mansoni [1] = experiment: Adult schistosome mobility assay (inhibition of movement); type: cell-based, Schistosoma mansoni; conditions: for Potency at evoking coiled, contractile paralysis / activity against parasites (in words): in vitro, concentration-response, Fig 2B & 2C; for IC50: Schistosoma mansoni, adult male worms cultured in compound overnight, movement relative to DMSO control
adult male S. mansoni [2] = experiment: In vitro screen / re-screen for coiled, contractile (curl) phenotype; type: cell-based, Schistosoma mansoni; conditions: for Worms showing curl phenotype: overnight
[3] = target: mammalian GABAARs (central benzodiazepine binding site); experiment: [3H]flunitrazepam displacement binding assay, rat cerebral cortex membranes; conditions: rat brain membrane preparations, 0.4 nM radioligand, 60 min at 4°C
Procedure: Binding assays for benzodiazepines against mammalian GABAARs were performed measuring displacement of [3H] flunitrazepam (0.4 nM) from crude brain membrane preparations. Rat cerebral cortex membrane homogenate (80 μg protein) was incubated with 0.4 nM [3H]-flunitrazepam in 50 mM Tris-HCl (pH 7.7), plus test compounds (screened at concentrations ranging from 0.1 nM to 10 μM), and non-specific binding was assessed by incubation with diazepam (3 μM). Following incubation for 60 min at 4°C, samples were vacuum filtered through glass fiber filters (GF/B, Packard) presoaked with 0.3% PEI and rinsed with ice-cold 50 mM Tris-HCl (Unifilter, Packard). Filters were dried and counted for radioactivity in a scintillation counter (Topcount, Packard). Ki values of test compounds were calculated by the Cheng-Prusoff equation.

S. mansoni tegument = experiment: Transmission electron microscopy of drug-treated worms (tegument damage); type: cell-based, Schistosoma mansoni
Procedure: Adult worms were harvested and recovered as above. Fixation was carried out overnight at 4°C in 2.5% glutaraldehyde/2% paraformaldehyde in 0.1 M sodium cacodylate (pH 7.3). Worms were washed 3 × 10 minutes in 0.1 M sodium cacodylate and post-fixed for 2 hours on ice in reduced 1% osmium tetraoxide. Worms were then washed 2 × 10 minutes in distilled water and stained overnight at 4°C in alcoholic Uranyl Acetate. Worms were rinsed in distilled water, dehydrated in 50%, 75% and 95% MeOH, followed by successive 10 minute rinses in 100% MeOH and acetonitrile. Worms were incubated in a 1:1 mix of acetonitrile and epoxy resin for 1 hour prior to 2 × 1 hour incubations in epoxy resin. Worms were then cut transversely and embedded overnight in epoxy resin (60°C). Ultra-thin sections (70 nm) were cut onto bare 200-mesh copper grids and stained in aqueous lead citrate for 1 minute. Sections were imaged on a Hitachi H-600 electron microscope fitted with a Hamamatsu C4742-95 digital camera) operating at an accelerating voltage of 75 kV.
Given the parasite-selectivity of imidazobenzodiazepines (Fig 3, blue) relative to MCLZ-like compounds (Fig 3, red), we investigated the effects of XliHeII-048, Xhe-II-048 and SH-I-055 on schistosome tissues in more detail. Specifically, we were interested in drug-evoked damage to the parasite tegument, which is a feature of many anti-schistosomal compounds [38]. Worms treated with DMSO vehicle control, MCLZ (5 μM) or various imidazobenzodiazepines (10 μM, based on effective concentrations determined in Fig 2) overnight were fixed and processed for imaging by transmission electron microcopy (TEM).
(§1) Fig 4 Xhe-II-048 damages the schistosome tegument. (A) Transmission electron microscopy images of transverse sections of S. mansoni exposed to either DMSO control, MCLZ (5 μM) or various imidazobenzodiazepines (10 μM, 14 hours). Dorsal tegument is oriented to the top. Scale = 2 μm. Arrowed = vacuoles beneath the tegument apical membrane. (B) Movement of worms treated with DMSO, MCLZ, or TMS-acetylene imidazobenzodiazepine compounds (10 μM, 14 hours), and recovery at various timepoints (3 hours, 1 day) following drug washout.

S. mansoni = experiment: Recovery of worm movement following drug washout; type: cell-based, Schistosoma mansoni; conditions: 14 hours treatment, recovery 3 hours, 1 day after washout
Procedure: Female Swiss Webster mice infected with S. mansoni cercariae (NMRI strain) were sacrificed 49 days post infection by CO2 euthanasia. Adult schistosomes were recovered by dissection of the mesenteric vasculature. Harvested schistosomes were washed in DMEM (ThermoFisher cat. # 11995123) supplemented with HEPES (25mM), 5% v/v heat inactivated FCS (Sigma Aldrich cat. # 12133C) and Penicillin-Streptomycin (100 units/mL). Worms were cultured in 6 well dishes (4–5 male worms in 3mL media per well) in the presence of various test compounds or DMSO vehicle control overnight (37°C / 5% CO2). Worms were imaged the next day to record movement phenotypes using a Zeiss Discovery v20 stereomicroscope and a QiCAM 12-bit cooled color CCD camera controlled by Metamorph imaging software (version 7.8.1.0). 1 minute recordings were acquired at 4 frames per second and saved as a .TIFF stack, which was imported into ImageJ for analysis. An outline of the workflow used to quantify movement from these video recordings is shown in S1 Fig. Maximum intensity projections were generated for the entire stack of images (241 frames for a 1-minute recording) and integrated pixel values were measured for the resulting composite image, allowing normalization of movement relative to DMSO control treated worms. Inhibition of movement IC50 values were calculated using GraphPad Prism v8.1.1 and are expressed ± 95% confidence intervals. Data represents mean ± standard error for ≥3 independent experiments. Significance (*) was determined by unpaired t-test at a threshold of 0.05.
as §1

[4] = cited from earlier work
schistosomes = system: schistosomes; parameters: method as in PMID 380021; conditions: human clinical trials; cited from earlier work
SmGluCl = system: SmGluCl; parameters: method as in PMID 24009509; conditions: cited from earlier work
S. japonicum = conditions: no reference given; cited from earlier work
[5] = human clinical trials; cited from earlier work
schistosomiasis = system: schistosomiasis; parameters: method as in PMID 21695161, PMID 28619227; conditions: PZQ treatment; cited from earlier work
[6] = inactive compounds tested at concentrations as high as 50 μM

## CCOC(=O)c1ncn2c1[C@@H](C)N=C(c1ccccc1F)c1cc(C#C[Si](C)(C)C)ccc1-2 [SH-I-060]
Adult male S. mansoni [1]
  Potency at evoking coiled, contractile paralysis / activity against parasites (in words): marked decrease in potency; also recorded: essentially inactive

## C[C@H]1N=C(c2ccccc2F)c2cc(Br)ccc2-n2cnc(-c3cnco3)c21 [GL-III-36]
Adult male S. mansoni [2]; 10 micromolar
  Worms showing curl phenotype: inactive (0/8 curling) at 10 micromolar

## O=C1CN=C(c2ccccc2Cl)c2cc([N+](=O)[O-])ccc2N1 [CLZ, clonazepam, reference compound]
Adult male S. mansoni [1]; Fig 3
  Decrease in potency relative to MCLZ (loss of C3 methyl group): > 3 log
Adult male S. mansoni [1]; [6]
  IC50: 1.9 µM
[3]
  Ki: 0.00082 µM

## C[C@@H]1N=C(c2ccccc2)c2cc([N+](=O)[O-])ccc2NC1=O [MYM-I-88]
Adult male S. mansoni [1]; [6]
  IC50: 26 µM
[3]
  Ki: 0.0764 µM

## CCOC(=O)c1ncn2c1CN=C(c1ccccc1)c1cc(C#C[Si](C)(C)C)ccc1-2 [Xhe-II-048]
Adult male S. mansoni [1]
  IC50: 0.85 µM
[3]
  Ki: 2.5 µM
S. mansoni tegument; 10 μM, overnight (14 hours)
  Tegument ultrastructure (TEM): extensive vacuole distribution beneath the apical membrane
S. mansoni; 10 μM
  Recovery of movement following drug washout: did not recover movement up to one day

## Cc1ncoc1-c1ncn2c1CN=C(c1ccccc1)c1cc(Br)ccc1-2 [KRM-III-66]
Adult male S. mansoni [2]; 10 micromolar
  Worms showing curl phenotype: 6/8 curl at 10 micromolar

## Brc1ccc2c(c1)C(c1ccccc1)=NCc1c(-c3cnco3)ncn1-2 [KRM-II-73]
Adult male S. mansoni [2]; 10 micromolar
  Worms showing curl phenotype: 2/8 curl at 10 micromolar

## C[C@H]1N=C(c2ccccc2F)c2cc(C#C[Si](C)(C)C)ccc2NC1=O [GL-I-61]
Adult male S. mansoni [2]; 10 micromolar
  Worms showing curl phenotype: 3/8 curling at 10 micromolar

## C#Cc1ccc2c(c1)C(c1ccccn1)=NCc1c(-c3ocnc3C)ncn1-2 [KRM-III-79]
Adult male S. mansoni [2]; 10 micromolar
  Worms showing curl phenotype: 5/8 curl at 10 micromolar

## O=C1CN=C(c2ccc(Cl)cc2)c2cc(Cl)ccc2N1 [GL-I-74]
Adult male S. mansoni [2]; 10 micromolar
  Worms showing curl phenotype: 1/8 curl at 10 micromolar

## CCOC(=O)c1ncn2c1CN(C)C(=O)c1cc(F)ccc1-2 [flumazenil]
[4]; flumazenil, administered by IV
  Elimination half-life: < 1 h
[4]; flumazenil
  Bioavailability: poor bioavailability

## O=C1CN=C(c2ccccc2)c2cc([N+](=O)[O-])ccc2N1 [nitrazepam, reference compound]
Adult male S. mansoni [1]; [6]
  IC50: > 50 µM
Adult male S. mansoni [1]
  Potency at evoking coiled, contractile paralysis / activity against parasites (in words): inactive against parasites

## C[C@@H]1N=C(c2ccccc2F)c2cc([N+](=O)[O-])ccc2NC1=O [MYM-I-91A]
Adult male S. mansoni [1]; [6]
  IC50: 7.2 µM
[3]
  Ki: 0.0121 µM

## C[C@@H]1N=C(c2ccccc2Cl)c2cc([N+](=O)[O-])ccc2N(C)C1=O [MYM-II-53]
Adult male S. mansoni [1]; [6]
  IC50: > 50 µM
[3]
  Ki: 0.0041 µM

## C[C@H]1N=C(c2ccccc2F)c2cc(C#C[Si](C)(C)C)ccc2-n2cnc(-c3cnco3)c21 [GL-III-72]
Adult male S. mansoni [2]; 10 micromolar
  Worms showing curl phenotype: 5/8 curl at 10 micromolar

## CCOC(=O)c1ncn2c1CN=C(c1ccccc1F)c1cc(C#C[Si](C)(C)C)ccc1-2 [XliHeII-048]
Adult male S. mansoni [1]
  IC50: 0.54 µM
[3]
  Ki: 1.6 µM
S. mansoni tegument; 10 μM, overnight (14 hours)
  Tegument ultrastructure (TEM): normal tissue ultrastructure
S. mansoni; 10 μM
  Recovery of movement following drug washout: recovering by 1 day after drug washout
Adult male S. mansoni [2]; 10 micromolar
  Worms showing curl phenotype: 5/5

## CCOC(=O)c1ncn2c1[C@H](C)N=C(c1ccccc1F)c1cc(Br)ccc1-2 [SH-I-48B]
Adult male S. mansoni [1]
  Potency at evoking coiled, contractile paralysis / activity against parasites (in words): dramatically decreased affinity
Adult male S. mansoni [2]; up to 100 micromolar
  Activity (curl phenotype): Inactive up to 100 micromolar

## C[C@@H]1N=C(c2ccccc2Cl)c2cc([N+](=O)[O-])ccc2NC1=O [MCLZ, meclonazepam]
Adult male S. mansoni [1]
  IC50: 0.16 µM
[3]
  Ki: 0.0024 µM
S. mansoni tegument; 5 μM, overnight
  Tegument ultrastructure (TEM): pervasive vacuolization of the tegument
S. mansoni; MCLZ
  Recovery of movement following drug washout: do not recover movement
schistosomes
  Effective anti-parasitic dose: 0.2 to 0.3 mg/kg
SmGluCl
  Activity against SmGluCl: inactive
S. japonicum
  Activity against S. japonicum: inactive
[4]; MCLZ
  Bioavailability: orally bioavailable
  Half-life: up to 80 hours
[5]
  Dose at which sedation was reported: above 0.3 mg/kg

## O=C(C1CCCCC1)N1CC(=O)N2CCc3ccccc3C2C1 (centres unmarked) [PZQ, praziquantel]
schistosomiasis
  Cure rates: 70–90%

## C#Cc1ccc2c(c1)C(c1ccccc1F)=N[C@@H](C)c1c(C(=O)OCC)ncn1-2 [SH-053-2’F-S-CH3]
Adult male S. mansoni [1]
  Potency at evoking coiled, contractile paralysis / activity against parasites (in words): dramatically decreased affinity

## CCOC(=O)c1ncn2c1[C@H](C)N=C(c1ccccc1F)c1cc(C3CC3)ccc1-2 [GL-I-78]
Adult male S. mansoni [1]
  Potency at evoking coiled, contractile paralysis / activity against parasites (in words): dramatically decreased affinity
Adult male S. mansoni [2]; 10 micromolar
  Worms showing curl phenotype: Inactive (0/8 curl) at 10 micromolar

## CCOC(=O)c1ncn2c1[C@H](C)N=C(c1ccccc1F)c1cc(C#C[Si](C)(C)C)ccc1-2 [SH-I-055]
Adult male S. mansoni [1]; [6]
  IC50: 1.4 µM
Adult male S. mansoni [1]; movement IC50 comparison
  Times less potent than XliHeII-048: ~ 3 times
[3]
  Ki: 1.7 µM
S. mansoni tegument; 10 μM, overnight (14 hours)
  Tegument ultrastructure (TEM): normal tissue ultrastructure
S. mansoni; 10 μM
  Recovery of movement following drug washout: recovering by 1 day after drug washout
Adult male S. mansoni [2]; 5 micromolar
  Worms showing curl phenotype: 4/8
Adult male S. mansoni [2]; 10 micromolar
  Worms showing curl phenotype: 8/8
